Measurements as given in patent publication US9796677B2, “Amide compound and pharmaceutical comprising same” (JAPAN SCIENCE AND TECHNOLOGY AGENCY, priority 2013, dated 2017).

Test system: Aβ
Assay: not given
Details: background statement on the known pentapeptide; cited from earlier work

Sequence of Aβ (P05067 672-711 limits assumed): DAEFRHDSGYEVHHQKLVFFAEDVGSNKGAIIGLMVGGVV

Q: Which “Aβ aggregation inhibitory activity” value does the source give for “L-[Lys-Leu-Val-Phe-Phe] (KLVFF) [(known), used as control]” here?
A: very weak

Molecular target: T1, O-acylisopeptide of Aβ (Homo sapiens, UniProt P05067)
T1 construct: containing O-acylisopeptide of Aβ (10 μM)
Assay: Aβ aggregation inhibition test (thioflavine T fluorescence)
Assay type: biochemical
Details: final sample concentration 30 μM, Aβ O-acylisopeptide 10 μM, pH 7.4, 37° C., 1% DMSO; DMSO control defined as 100
Method: A test sample solution (solution in DMSO) was added into a 0.1 M phosphate buffer solution (pH 7.4, 50 μL) containing O-acylisopeptide of Aβ (10 μM) (final sample concentration: 30 μM, 1% DMSO), and the mixture was incubated at 37° C. for an arbitrary time. Then, an aliquot (10 μL) of the reaction solution was added to a mixed solution of a thioflavine T solution (50 μM thioflavine T, 10 μL) and a 50 mM glycine-NaOH buffer (pH 8.5, 396 μL) and immediately mixed therewith, and the fluorescence intensity of thioflavine T was measured. In the fluorescence intensity measurement, 440 nm was used as an excitation wavelength, and 480 nm was used as a fluorescent wavelength.

T1 sequence (P05067 672-713 limits assumed): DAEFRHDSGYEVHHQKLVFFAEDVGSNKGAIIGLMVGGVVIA

Q: Which “Aggregation inhibition ratio (lower value means stronger inhibitory activity)” value does the source give for `CC(C)CCNC(=O)c1cc(Cc2ccccc2)cc(Oc2ccccc2)n1` [Compound 1, 4-Benzyl-6-phenoxy-N-isoamylpicolinamide] here?
A: 61

Q: With `CC(C)CCNC(=O)c1cc(Cc2ccc3ccccc3c2)cc(Oc2ccccc2)n1` [Compound 2, 4-(Naphthalen-2-yl)methyl-6-phenoxy-N-isoamylpicolinamide] as the compound, how does the “Aggregation inhibition ratio (lower value means stronger inhibitory activity)” value read?
A: 52

Q: With `CC(C)CCCNC(=O)c1cc(Cc2ccccc2)cc(Oc2ccccc2)n1` [Compound 3, 4-Benzyl-6-phenoxy-N-(4-methylpentyl)picolinamide] as the compound, how does the “Aggregation inhibition ratio (lower value means stronger inhibitory activity)” value read?
A: 58

Q: With `CC(C)CCNC(=O)c1cc(Cc2ccccc2)cc(OC2CCCCC2)n1` [Compound 4, 4-Benzyl-6-cyclohexyloxy-N-isoamylpicolinamide] as the compound, how does the “Aggregation inhibition ratio (lower value means stronger inhibitory activity)” value read?
A: 60

Q: With `CC(C)CCNC(=O)c1cc(Cc2ccccc2)cc(OCc2ccccc2)n1` [Compound 5, 6-Benzyloxy-4-benzyl-N-isoamylpicolinamide] as the compound, how does the “Aggregation inhibition ratio (lower value means stronger inhibitory activity)” value read?
A: 75

Q: Which “Aggregation inhibition ratio (lower value means stronger inhibitory activity)” value does the source give for `CC(C)CCOc1cc(Cc2ccccc2)cc(C(=O)NCCc2ccccc2)n1` [Compound 6, 4-Benzyl-6-(3-methylbutoxy)-N-phenylethylpicolinamide] here?
A: 60

Q: Which “Aggregation inhibition ratio (lower value means stronger inhibitory activity)” value does the source give for `O=C(NC1C2CC3CC(C2)CC1C3)c1nc(Cc2ccccc2)cc(Oc2ccccc2)n1` (centres unmarked) [Compound 12, N-(Adamantan-2-yl)-4-benzyl-6-phenoxypyrimidine-2-carboxamide] here?
A: 40
